Measured values reported in US20030220310A1, “Epoxy-steroidal aldosterone antagonist and calcium channel blocker combination therapy for treatment of congestive heart failure” (priority 2003, published 2003).

What was measured:
[1] = tested on: patients with heart failure after an acute myocardial infarction; experiment: Example 20 clinical study: eplerenone plus CCB in heart failure following acute myocardial infarction; type: in vivo, human
Text: Clinical Study: Safety and Efficacy of Eplerenone When Co-Administered with a Calcium-Channel Blocker in Patients with Heart Failure Followin Acute Myocardial Infarctiong
Secondary endpoints include cardiovascular morbidity and mortality. The study is a multicenter, randomized, double-blind, placebo-controlled, two-arm, parallel group trial that will continue until 1,012 deaths occur, which is estimated to require approximately 6,200 randomized patients followed for an average of approximately 2.5 years.
Eligible patients may be identified for inclusion at any time following emergency room evaluation and presumptive diagnosis of AMI with HF. […]
Patients will receive CCB therapy and may have received anticoagulants and antiplatelet agents, and may have received thrombolytics or emergency angioplasty. […] Serum potassium will be determined at 48 hours after initiation of treatment, at 1 and 5 weeks, at all other scheduled study visits, and within one week following any dose change.
Study visits will occur at screening, baseline (randomization), 1 and 4 weeks, 3 months, and every 3 months thereafter until the study is terminated. […] Vital signs (seated heart rate and BP), New York Heart Association (NYHA) functional class, adverse events, and selected concurrent medications will be recorded at every visit. […]

[2] = tested on: rats made hypertensive by renal artery clip; experiment: Assay C: Hypertensive Rat Model; type: in vivo; settings: combination of calcium channel blocker and epoxymexrenone versus either component alone, after 12 to 24 weeks
Description: Assay “C”: Hypertensive Rat Model Male rats are made hypertensive by placing a silver clip with an aperture of 240 microns on the left renal artery, leaving the contralateral kidney untouched. Sham controls undergo the same procedure but without attachment of the clip. One week prior to the surgery, animals to be made hypertensive are divided into separate groups and drug treatment is begun. Groups of animals are administered vehicle, calcium channel blocker alone, epoxymexrenone alone, and combinations of calcium channel blocker and epoxymexrenone at various doses: [table] After 12 to 24 weeks, systolic and diastolic blood pressure, left ventricular end diastolic pressure, left ventricular dP/dt, and heart rate are evaluated. The hearts are removed, weighed, measured and fixed in formalin. Collagen content of heart sections are evaluated using computerized image analysis of picrosirius stained sections.

[3] = tested on: patients with mild to moderate hypertension; experiment: Example 19 clinical study: eplerenone versus placebo co-administered with a calcium-channel blocker; type: in vivo, human
Description: This multicenter, randomized, double-blind, placebo-controlled, placebo run-in, parallel group trial involving a minimum of 120 randomized patients with hypertension (seated diastolic blood pressure [seDBP] ≧95 mmHg and <110 mmHg and seated systolic BP [seSBP] <180 mmHg while taking a CCB) will consist of a one- to two-week pretreatment screening period followed by a two- to four-week single-blind placebo run-in period and an 8-week double-blind treatment period. Eligible patients will be patients currently receiving a CCB as part of their antihypertensive medication. […] The dose will not be changed for patients with adequate BP control. […] If the dose has been increased at Week 2, the patient will be reassessed at Week 6. […] If BP is uncontrolled at Week 6 and the dose has been increased at Week 2 or Week 4, the patient must be withdrawn from the study. If symptomatic hypotension (i.e., lightheadedness, dizziness, or syncope associated with low BP) occurs at any time during the study, or if DBP is ≧110 mmHg or SBP is ≧180 mmHg at any time during the trial, the patient must be withdrawn. Patients will receive study medication for a total of 8 weeks.
Patients will return to the clinic for evaluations at Weeks 0 (baseline), 2, 4, 6, 8, and 9. Heart rate, BP, adverse events and concomitant medication will be assessed at each visit. Hematology and biochemistry evaluations and urinalysis for safety will be at Weeks 0, 8, and 9. Serum potassium levels will be determined at Weeks 0 (baseline), 2, 4, 6, 8, and 9. Plasma renin, serum aldosterone, and plasma cortisol will be determined at Weeks 0 and 8. A 12-lead electrocardiogram and physical examination will be done at screening and at Week 9.
Eligible patients will be either currently receiving a CCB alone, or receiving a CCB as part of their antihypertensive medication. […] The dose will not be changed for patients with adequate BP control. […] If the dose has been increased at Week 2, the patient will be reassessed at Week 6. The dose of study medication will not be changed for patients with adequate BP control. […] If BP is uncontrolled at Week 6 and the dose has been increased at Week 2 or Week 4, the patient must be withdrawn from the study. The dose of study medication will not be changed for patients with adequate BP control. If symptomatic hypotension (i.e., lightheadedness, dizziness, or syncope associated with low BP) occurs at any time during the study, or if DBP is ≧110 mmHg or SBP is ≧180 mmHg at any time during the study, the patient must be withdrawn. Patients will receive study medication for a total of eight weeks.
Patients will return to the clinic for evaluations at Weeks 0, 2, 4, 6, 8, and 9. Heart rate, BP, adverse events and concomitant medication will be assessed at each visit. Hematology and biochemistry evaluations and urinalysis for safety will be at Weeks 0, 8, and 9. Serum potassium levels will be determined at Weeks 0, 2, 4, 6, 8, and 9. Plasma renin, serum aldosterone, and plasma cortisol will be determined at Weeks 0 and 8. A 12-lead electrocardiogram and physical examination will be done at screening and at Week 9.
The treatment difference will be evaluated based on the mean change from baseline in seated trough cuff DBP at Week 8.

[4] = Differential scanning calorimetry, melting/decomposition; type: physicochemical; settings: cooling rate (0) 1.5° C./min.; endpoint (0) 25° C.; 100.8% eplerenone seeded with Form H; analyzed by DSC
Text: Melting/decomposition ranges were defined from the extrapolated onset to the maximum of the melting/decomposition endotherm. […] One or more endothermal events at lower temperatures were associated with enthalpy changes that occurred as solvent was lost from the solvate crystal lattice. The highest temperature endotherm or endotherms were associated with the melting/decomposition of Form L or Form H eplerenone.

[5] = X-ray powder diffraction, Form H content of dried solids; type: physicochemical; settings: methyl ethyl ketone solvate dried at 100° C.
Description: For the Siemens D500 powder diffractometer, the raw data was measured for 2q values from 2 to 50, with steps of 0.020 and step periods of two seconds. For the Inel Multipurpose Diffractometer, samples were placed in an aluminum sample holder and raw data was collected for 30 minutes at all two theta values simultaneously.
The weight percent of the diepoxide or 11,12-epoxide in each sample is given in Tables X-6A and X-6B, respectively. A micro-flea magnetic stirrer was added to each scintillation vial along with 1 mL of methyl ethyl ketone. The vials were loosely capped and the solid dissolved by heating to reflux on a hot plate with magnetic stirring. Once the solids were dissolved, the solutions were allowed to cool to room temperature on the hot plate. Magnetic stirring was maintained during the cooling period. After the solutions reached room temperature, the solids were collected by vacuum filtration and immediately analyzed by X-ray powder diffraction (XPRD). The solids were then placed in a 100° C. oven and dried for one hour at ambient pressure. The dried solids were analyzed by XPRD for Form H content by monitoring the area of the Form H diffraction peak at about 12.1 degrees two theta. All XPRD diffraction patterns were recorded using an Inel Multipurpose Diffractometer.
The area for the Form H diffraction peak at about 12.1 degrees two theta and the estimated Form H content for each sample are given in Table X-6C below.

[6] = CCB and eplerenone compared to CCB and placebo
[7] = eplerenone plus CCB versus CCB plus placebo, eight weeks, hypertensive patients
[8] = 0% 11,12-epoxide in starting eplerenone mixture
[9] = 5% 11,12-epoxide in starting eplerenone mixture

For COC(=O)[C@@H]1CC2=CC(=O)CC[C@]2(C)C23O[C@@H]2C[C@@]2(C)[C@@H](CC[C@@]24CCC(=O)O4)[C@H]13 (stereo partly drawn) [eplerenone, Pregn-4-ene-7,21-dicarboxylic acid, 9,11-epoxy-17-hydroxy-3-oxo-,γ-lactone, methyl ester, (7α,11α,17β)-], the “primary end point of all cause mortality” value ([1]; eplerenone plus CCB relative to CCB alone) was “Improvement”, the “secondary end points (cardiovascular mortality, hospitalizations, quality of life etc.)” value ([1]; eplerenone plus CCB versus CCB alone) was “Beneficial effects” and the cardiac performance [2] was “improvements in cardiac performance”. The Active renin levels [3, 6] was “greater increase”, the aldosterone levels [3, 6] was “greater increase” and the serious adverse events ([3]; eplerenone added to CCB therapy) was “no serious adverse events”. For the same molecule, the “change in mean diastolic blood pressure” value [3, 7] was “greater for the dual therapy group, compared to monotherapy, but this difference did not reach statistical significance”, the “change in systolic blood pressure” value [3, 7] was “significant reduction” and the “Weight Percent Form H (DSC)” value [4] was 100 Weight Percent. For the same molecule, the “Estimated Weight Percent of Form H” value [5, 8] was “None Detected”, the “Form H Peak Area 12° Two Theta Peak” value [5, 8] was “None Detected” and the “Estimated Weight Percent of Form H” value ([5]; 1% 11,12-epoxide in starting eplerenone mixture) was “None Detected”. For the same molecule, the “Estimated Weight Percent of Form H” value [5, 9] was “None Detected”, the “Form H Peak Area 12° Two Theta Peak” value [5, 9] was “None Detected” and the “Estimated Weight Percent of Form H” value ([5]; 5% diepoxide in starting eplerenone mixture) was 30%.
